Results: patent US20060258581A1, “Methods and composition for derepressions of IAP-inhibited caspase” (priority 2001, published 2006)
“Also recorded” adds a separate entry of the source.

Columns and labels:
[1] = system: PPC1 prostate cancer cells; assay: PPC1 prostate cancer xenograft in Balb/C nu-/nu- mice; type: in vivo; conditions: 30 mg/kg i.p. for 2 or 3 days
Text: Similar data was obtained using TPI 1396-22 (see FIGS. 33a and 33b). […] In FIG. 33b, the mice were sacrificed at day 19 and the tumors excised and weighed.

[2] = system: HCT-116 colon cancer cells; assay: HCT-116 colon cancer xenograft in Balb/C nu-/nu- mice; type: in vivo; conditions: 30 mg/kg i.p. on days 6, 7 and 8
Method: Additional experiments were performed using a different tumor xenograft model. HCT-116 colon cancer cells (2.5 million) were injected subcutaneously in the flanks of female Balb/C nu-/nu-mice. […] Tumor volume was measured by external calipers at least twice weekly for 19 days (see FIG. 32c). On day 19, the mice were sacrificed and the tumors were excised and weighed.

[3] = system: Jurkat leukemia cells; assay: Jurkat leukemia cell death, Annexin V/propidium iodide flow cytometry; type: cell-based
[4] = target: full length XIAP (Homo sapiens, UniProt P98170); assay: Potency of IAP antagonists in vitro (Table VIII; caspase derepression / SMAC competition with full length XIAP)
Chain of full length XIAP (P98170 whole entry): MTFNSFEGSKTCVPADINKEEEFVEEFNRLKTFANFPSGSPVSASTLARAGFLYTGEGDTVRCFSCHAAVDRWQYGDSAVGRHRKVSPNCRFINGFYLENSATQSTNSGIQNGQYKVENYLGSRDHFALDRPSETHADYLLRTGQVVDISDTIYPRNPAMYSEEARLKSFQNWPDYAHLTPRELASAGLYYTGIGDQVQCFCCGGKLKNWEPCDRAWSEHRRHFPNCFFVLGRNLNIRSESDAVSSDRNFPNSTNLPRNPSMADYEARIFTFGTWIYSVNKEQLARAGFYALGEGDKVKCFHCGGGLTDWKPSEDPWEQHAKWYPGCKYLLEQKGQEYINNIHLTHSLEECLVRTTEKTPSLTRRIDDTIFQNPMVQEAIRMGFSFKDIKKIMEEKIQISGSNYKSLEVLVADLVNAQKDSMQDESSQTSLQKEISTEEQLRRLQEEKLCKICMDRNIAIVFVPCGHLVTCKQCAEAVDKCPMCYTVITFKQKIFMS

In the case of `COc1ccc(CCN2CCC[C@@H]2CN(C(=O)Nc2ccccc2)[C@@H](CNC(=O)Nc2ccccc2)CC2CCCCC2)cc1` [TPI 1396-34], the “tumor size / growth, PPC1 xenograft” value [1] is reported as “reduced tumor size; also recorded: significantly slowed the rate of growth”, the “tumor size / growth, HCT116 xenograft” value [2] is reported as “tumor size was reduced; also recorded: significantly slowed the rate of growth” and the “time to half-maximal killing” value ([3]; 10 µM) is reported as “approximately 12 hours”. The “apoptosis in the presence of zVAD-fmk” value ([3]; 100 μM zVAD-fmk, 20 hours) was “suppressible” and the EC50 [4] was 77.1 µM.
